Measurements reported in patent US9440097B2, “Organic compounds” (Givaudan SA, priority 2005, dated 2016).
Like-named read-outs stand apart in the source and are kept apart here.

Tested on: PGE2 formation in normal human epidermal keratinocytes (NHEK)
Assay: Inhibition of PGE2 formation in irritated keratinocyte cultures (PGE2 immunoassay)
Type: cell-based
Settings: 24 h; for inhibition at 50 µM: Homo sapiens, NHEK, read-out: relative inhibition in % of PGE2 formation in keratinocyte cultures at 50 μM; for relative inhibition in % of PGE2 formation in keratinocyte cultures at μM: column head prints only 'μM' (method: 50 μM or 10 μM), calcimycin 2.5 μM
Method: A confluent culture was trypsinated and adjusted to a density of 5×10^4 cells/ml. The cells were then seeded in the same medium but with only 1% fetal calf serum in 24 well plates and cultivated for a period of 48 h. A model irritating agent was then applied to the cells by adding calcimycin to a final level of 2.5 μM. The individual compounds, as listed below, dissolved in DMSO were added simultaneously. The final concentration of the compounds was 50 μM or 10 μM, the final DMSO concentration was adjusted to 1% (v/v). Parallel treatments received no calcimycin (non-irritated control) or calcimycin without compounds according to the present invention (irritated control). The DMSO concentration was adjusted to 1% in all these control treatments. […] The prostaglandin levels in treated cell cultures were compared to the irritated and non-irritated control cultures in order to determine the relative inhibition of PGE2 formation.

[1] = 50 μM compound, irritated with calcimycin 2.5 μM, 1% DMSO

N#CC(=C1CCCC1)c1ccccc1 [2-Cyclopentylidene-2-phenylacetonitrile]
inhibition at 50 µM [1]: 80.8% | relative inhibition in % of PGE2 formation in keratinocyte cultures at μM (1% DMSO): 71.1%

CCC(CC)=C(C#N)c1ccccc1 [3-Ethyl-2-phenylpent-2-enenitrile]
inhibition at 50 µM [1]: 73.2% | relative inhibition in % of PGE2 formation in keratinocyte cultures at μM (1% DMSO): 63.9%

CCCCCCCC1CCCC1=O (stereo not drawn) [ALISMONE ™, 2-heptylcyclopentanone]
inhibition at 50 µM [1]: 92.4% | relative inhibition in % of PGE2 formation in keratinocyte cultures at μM (1% DMSO): 47%

CCC(C)C(=O)OCCc1ccccc1 (stereo not drawn) [ANATOLYL ™, phenethyl 2-methylbutanoate]
inhibition at 50 µM [1]: 50.5%

CC=Cc1ccc(OC)cc1 [ANETHOLE, 1-methoxy-4-(prop-1-enyl)benzene]
inhibition at 50 µM [1]: 51%

CCCCCOC(=O)c1ccccc1O [Amyl salicylate, pentyl 2-hydroxybenzoate]
inhibition at 50 µM [1]: 89.8% | relative inhibition in % of PGE2 formation in keratinocyte cultures at μM (1% DMSO): 73.5%

CC(C)(C)c1ccc(CCC=O)cc1 [BOURGEONAL ™, 3-(4-tert-butylphenyl)propanal]
inhibition at 50 µM [1]: 65%

CC(C)(C)C(=O)OCCc1ccccc1 [CENTIFOLYL ™, phenethyl pivalate]
inhibition at 50 µM [1]: 39%

CC(C=O)Cc1ccc(C(C)C)cc1 (stereo not drawn) [CYCLAMEN ALDEHYDE ™, 2-Methyl-3-(4-isopropylphenyl)propanal]
inhibition at 50 µM [1]: 82% | relative inhibition in % of PGE2 formation in keratinocyte cultures at μM (1% DMSO): 32%

CC(=O)OCC=Cc1ccccc1 [Cinnamyl acetate]
inhibition at 50 µM [1]: 47.8%

O=C(C=Cc1ccccc1)OCC=Cc1ccccc1 [Cinnamyl cinnamate]
inhibition at 50 µM [1]: 64%

O=C(OC1CCCCC1)c1ccccc1O [Cyclohexyl salicylate, cyclohexyl 2-hydroxybenzoate]
inhibition at 50 µM [1]: 97.4% | relative inhibition in % of PGE2 formation in keratinocyte cultures at μM (1% DMSO): 76.6%

CC(C)COC(=O)c1ccccc1 [Isobutyl benzoate]
inhibition at 50 µM [1]: 52.5%

CC(C)COC(=O)c1ccccc1O [Isobutyl salicylate, isobutyl 2-hydroxybenzoate]
inhibition at 50 µM [1]: 69.1% | relative inhibition in % of PGE2 formation in keratinocyte cultures at μM (1% DMSO): 73.1%

CCOc1cc(COC)ccc1O [METHYL DIANTILIS ®, 2-Ethoxy-4-(methoxymethyl)phenol]
relative inhibition in % of PGE2 formation in keratinocyte cultures at μM (1% DMSO): 88.2%

CCOc1ccc2ccccc2c1 [NEROLINE ™ CRIST, 2-ethoxynaphthalene]
inhibition at 50 µM [1]: 83% | relative inhibition in % of PGE2 formation in keratinocyte cultures at μM (1% DMSO): 50.2%

N#CC(=C1CCCCC1)c1ccccc1 [PEONILE ®, 2-cyclohexylidene-2-phenylacetonitrile]
inhibition at 50 µM [1]: 93.3% | relative inhibition in % of PGE2 formation in keratinocyte cultures at μM (1% DMSO): 92.4%

CCOc1cc(COC(C)C)ccc1O [PROPYL DIANTILIS, 2-Ethoxy-4-(isopropoxymethyl)phenol]
inhibition at 50 µM: 90.9% | relative inhibition in % of PGE2 formation in keratinocyte cultures at μM (1% DMSO): 95.1%

O=C(OCCc1ccccc1)c1ccccc1 [Phenethyl benzoate]
inhibition at 50 µM [1]: 92.4% | relative inhibition in % of PGE2 formation in keratinocyte cultures at μM (1% DMSO): 56.9%

O=C(C=Cc1ccccc1)OCCc1ccccc1 [Phenethyl cinnamate]
inhibition at 50 µM [1]: 91.7% | relative inhibition in % of PGE2 formation in keratinocyte cultures at μM (1% DMSO): 93.6%

CC(C)C(=O)OCCc1ccccc1 [Phenethyl isobutyrate]
inhibition at 50 µM [1]: 44.8%

O=C(OCCc1ccccc1)c1ccccc1O [Phenethyl salicylate]
inhibition at 50 µM [1]: 50.9%

CC(C)Cc1ccc(CC(C)C=O)cc1 (stereo not drawn) [SILVIAL ®, 2-Methyl-3-(4-(2-methylpropyl)phenyl)propanal]
inhibition at 50 µM [1]: 62.7%

CC=C(C)C(=O)OCc1ccccc1 [TIGLATE BENZYLE, benzyl 2-methylbut-2-enoate]
inhibition at 50 µM [1]: 72.4% | relative inhibition in % of PGE2 formation in keratinocyte cultures at μM (1% DMSO): 50.2%

COc1ccc(CC2CC2)cc1 [TOSCANOL ®, 1-(cyclopropylmethyl)-4-methoxybenzene]
inhibition at 50 µM [1]: 56.7%

CC/C=C\CCOC(=O)c1ccccc1O [cis-3-Hexen-1-yl salicylate]
inhibition at 50 µM [1]: 94.8% | relative inhibition in % of PGE2 formation in keratinocyte cultures at μM (1% DMSO): 81.4%

CCCCCCOC(=O)c1ccccc1O [n-Hexyl salicylate]
inhibition at 50 µM [1]: 82.9% | relative inhibition in % of PGE2 formation in keratinocyte cultures at μM (1% DMSO): 91.6%
